The target of experiment [1] is T1, human DP2 receptor (Homo sapiens, UniProt Q9Y5Y4).
T1 construct: expressed in transfected cells
T1 sequence (Q9Y5Y4 1-395): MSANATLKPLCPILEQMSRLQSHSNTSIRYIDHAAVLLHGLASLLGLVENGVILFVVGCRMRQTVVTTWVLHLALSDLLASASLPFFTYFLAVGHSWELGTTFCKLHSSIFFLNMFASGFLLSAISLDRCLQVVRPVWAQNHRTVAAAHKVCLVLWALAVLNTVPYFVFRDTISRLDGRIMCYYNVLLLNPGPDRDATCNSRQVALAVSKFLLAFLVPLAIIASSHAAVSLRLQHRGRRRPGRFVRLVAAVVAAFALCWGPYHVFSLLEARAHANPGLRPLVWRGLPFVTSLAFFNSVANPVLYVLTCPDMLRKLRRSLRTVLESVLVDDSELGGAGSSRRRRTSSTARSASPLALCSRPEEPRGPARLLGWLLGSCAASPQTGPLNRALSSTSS
In words: DP2/CRTH2 radioligand binding assay ([3H]PGD2). Particulars: membranes of HEK293 cells expressing recombinant human DP2, 1 nM [3H]PGD2; read-out: hDP2. The procedure: The ability of a compound to bind to the human DP2 receptor is assessed via a radioligand binding assay using [^3H]PGD2. HEK293 cells stably expressing recombinant human DP2 are resuspended in 10 mM Hepes, 7.4 containing 1 mM DTT, lysed and centrifuged at 75,000×g to pellet the membranes. The membranes are resuspended in 10 mM Hepes, 7.4 containing 1 mM DTF and 10% glycerol to approximately 5 mg protein/ml. Membranes (2-10 […]) are incubated in 96-well plates with 1 nM [^3H]PGD2 and test compound in Assay Buffer (50 mM Hepes, 10 mM MnCl2, 1 mM EDTA, plus or minus 0.2% human serum albumin, pH 7.4) for 60 minutes at room temperature. The reactions are terminated by rapid filtration through Whatman GF/C glass fibre filter plates. The filter plates were pre-soaked in 0.33% polythylenimine for 30 minutes at room temperature then washed in Wash Buffer (50 mM Hepes, 0.5 M NaCl pH 7.4) prior to harvesting. After harvesting, the filter plates are washed 3 times with 1 ml cold Wash Buffer then dried. Scintillant is then added to the plates and the radioactivity retained on the filters is determined on a Packard TopCount (Perkin Elmer). Specific binding is determined as total radioactive binding minus non-specific binding in the presence of 10 μM PGD2. IC50s were determined using GraphPad prism analysis of drug titration curves.

Experiment [2] concerns the target T2, human DP1 receptor (Homo sapiens, UniProt Q13258).
T2 construct: tissue Biological Specialty Corporation; host or cells: human platelets, membrane preparation
T2 sequence (Q13258 1-359): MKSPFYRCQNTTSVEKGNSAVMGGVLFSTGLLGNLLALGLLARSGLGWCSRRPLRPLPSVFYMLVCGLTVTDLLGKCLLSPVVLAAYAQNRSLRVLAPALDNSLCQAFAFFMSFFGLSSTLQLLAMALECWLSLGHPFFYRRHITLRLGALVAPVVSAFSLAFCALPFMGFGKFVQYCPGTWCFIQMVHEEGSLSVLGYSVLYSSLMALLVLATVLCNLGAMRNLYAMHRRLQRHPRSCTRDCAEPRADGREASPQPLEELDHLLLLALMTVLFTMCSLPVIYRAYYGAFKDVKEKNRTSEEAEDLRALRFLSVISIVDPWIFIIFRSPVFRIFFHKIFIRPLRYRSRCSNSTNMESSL
In words: DP1 radioligand membrane binding assay ([3H]BWA868C). The following applies: human platelet membranes, 2 nM [3H]BWA868C; read-out: hDP1. The protocol:
The ability of a compound to bind to the human DP1 receptor was evaluated via a radioligand membrane binding assay using the DP1 selective synthetic ligand [^3H]BWA868C. Packed human platelets (Biological Specialty Corporation), were resuspended in 6 volumes of Hepes/HBSS buffer (10 mM Hepes, 1 mM DTT in Hanks Balanced Salt Solution (HBSS), lysed and centrifuged at 75,000×g to pellet the membranes. Membranes were resuspended in Hepes/HBSS buffer to approximately 12 mg protein/ml. Membranes (20 μg protein/well) are incubated in 96-well plates with 2 nM [^3H]BWA868C and test compound in Assay Buffer (50 mM Hepes, 10 mM MnCl2, 1 mM EDTA, plus or minus 0.2% human serum albumin, pH 7.4) for 60 minutes at room temperature. The reactions are terminated by rapid filtration through Whatman GF/C glass fibre filter plates. The filter plates were pre-soaked in 0.33% polyethylenimine for 30 minutes at room temperature then washed in Wash Buffer (50 mM Hepes, 0.5 M NaCl pH 7.4) prior to harvesting. After harvesting, the filter plates are washed 3 times with 1 ml cold Wash Buffer then dried. Scintillant is then added to the plates and the radioactivity retained on the filters is determined on a Packard TopCount (Perkin Elmer). Specific binding is determined as total radioactive binding minus non-specific binding in the presence of 10 μM BW A868C. IC50s were determined using GraphPad prism analysis of drug titration curves.

Take `COc1ccc(CC(=O)O)cc1Oc1ccc(C(F)(F)F)cc1CSCCc1ccccc1` [Compound 1-1, [4-Methoxy-3-(2-phenethylsulfanylmethyl-4-trifluoromethyl-phenoxy)-phenyl]-acetic acid]: the IC50 in experiment [1] is under 300 nM; in experiment [2] it was over 1000 nM.

`COc1ccc(CC(=O)O)cc1Oc1ccc(C(F)(F)F)cc1CSCC(F)(F)F` [Compound 1-2, {4-Methoxy-3-[2-(2,2,2-trifluoro-ethylsulfanylmethyl)-4-trifluoromethyl-phenoxy]-phenyl}-acetic acid]: the IC50 in experiment [1] is under 300 nM; in experiment [2], over 1000 nM.

`COc1ccc(CC(=O)O)cc1Oc1ccc(C(F)(F)F)cc1CSC(C)(C)C` [Compound 1-3, [3-(2-tert-Butylsulfanylmethyl-4-trifluoromethyl-phenoxy)-4-methoxy-phenyl]-acetic acid]: the IC50 in experiment [1] is 300 to 1000 nM; in experiment [2] it was over 1000 nM.

With `COc1ccc(CC(=O)O)cc1Oc1ccc(C(F)(F)F)cc1CSc1ccccc1` [Compound 1-4, [4-Methoxy-3-(2-phenylsulfanylmethyl-4-trifluoromethyl-phenoxy)-phenyl]-acetic acid], the IC50 was under 300 nM in experiment [1] and over 1000 nM in experiment [2].

Consider `COc1ccc(CC(=O)O)cc1Oc1ccc(C(F)(F)F)cc1CS(=O)(=O)CCc1ccccc1` [Compound 1-5, {4-Methoxy-3-[2-(2-phenyl-ethanesulfonylmethyl)-4-trifluoromethyl-phenoxy]-phenyl}-acetic acid], for which the IC50 in experiment [1] was under 300 nM; in experiment [2], over 1000 nM.

Take `COc1ccc(CC(=O)O)cc1Oc1ccc(C(F)(F)F)cc1CS(=O)(=O)C(C)(C)C` [Compound 1-6, {4-Methoxy-3-[2-(2-methyl-propane-2-sulfonylmethyl)-4-trifluoromethyl-phenoxy]-phenyl}-acetic acid]: the IC50 in experiment [1] and in experiment [2] was over 1000 nM each time.

With `COc1ccc(CC(=O)O)cc1Oc1ccc(C(F)(F)F)cc1CS(=O)(=O)c1ccccc1` [Compound 1-7, [3-(2-Benzenesulfonylmethyl-4-trifluoromethyl-phenoxy)-4-methoxy-phenyl]-acetic acid], the IC50 in experiment [1] is 300 to 1000 nM; in experiment [2] it was over 1000 nM.

Take `COc1ccc(CC(=O)O)cc1Oc1ccc(C(F)(F)F)cc1C[S+]([O-])CCc1ccccc1` (stereo not shown) [Compound 1-8, {4-Methoxy-3-[2-(2-phenyl-ethanesulfinylmethyl)-4-trifluoromethyl-phenoxy]-phenyl}-acetic acid]: the IC50 in experiment [1] was under 300 nM; in experiment [2] it was over 1000 nM.

In the case of `COc1ccc(CC(=O)O)cc1Oc1ccc(C(F)(F)F)cc1C[S+]([O-])C(C)(C)C` (stereo not shown) [Compound 1-9, {4-Methoxy-3-[2-(2-methyl-propane-2-sulfinylmethyl)-4-trifluoromethyl-phenoxy]-phenyl}-acetic acid], the IC50 in experiment [1] and in experiment [2] was over 1000 nM each time.

`COc1ccc(CC(=O)O)cc1Oc1ccc(C(F)(F)F)cc1C[S+]([O-])c1ccccc1` (stereo not shown) [Compound 1-10, [3-(2-Benzenesulfinylmethyl-4-trifluoromethyl-phenoxy)-4-methoxy-phenyl]-acetic acid]: the IC50 in experiment [1] is under 300 nM; in experiment [2], over 1000 nM.

Turning to `O=C(O)Cc1cccc(Oc2ccc(Br)cc2CSc2ccccc2)c1` [Compound 1-11, [3-(4-Bromo-2-phenylsulfanylmethyl-phenoxy)-phenyl]-acetic acid], the IC50 is under 300 nM in experiment [1] and 300 to 1000 nM in experiment [2].

Consider `O=C(O)Cc1cccc(Oc2ccc(Br)cc2CSCc2ccccc2)c1` [Compound 1-12, [3-(2-Benzylsulfanylmethyl-4-bromo-phenoxy)-phenyl]-acetic acid], for which the IC50 in experiment [1] and in experiment [2] was under 300 nM throughout.

For the compound `O=C(O)Cc1cccc(Oc2ccc(Br)cc2CSCCc2ccccc2)c1` [Compound 1-13, [3-(4-Bromo-2-phenethylsulfanylmethyl-phenoxy)-phenyl]-acetic acid], the IC50 in experiment [1] and in experiment [2] was under 300 nM each time.

For `O=C(O)Cc1cccc(Oc2ccc(Br)cc2CSc2nccs2)c1` [Compound 1-14, {3-[4-Bromo-2-(thiazol-2-ylsulfanylmethyl)-phenoxy]-phenyl}-acetic acid], the IC50 was under 300 nM in experiment [1] and 300 to 1000 nM in experiment [2].

With `Cc1nnc(SCc2cc(Br)ccc2Oc2cccc(CC(=O)O)c2)s1` [Compound 1-15, {3-[4-Bromo-2-(5-methyl-[1,3,4]thiadiazol-2-ylsulfanylmethyl)-phenoxy]-phenyl}-acetic acid], the IC50 in experiment [1] is under 300 nM; in experiment [2], over 1000 nM.

As to `O=C(O)Cc1cccc(Oc2ccc(Br)cc2CSc2ccc3ccccc3n2)c1` [Compound 1-16, {3-[4-Bromo-2-(quinolin-2-ylsulfanylmethyl)-phenoxy]-phenyl}-acetic acid], the IC50 in experiment [1] and in experiment [2] was 300 to 1000 nM each time.

On to `O=C(O)Cc1cccc(Oc2ccc(Br)cc2CSc2ccccn2)c1` [Compound 1-17, {3-[4-Bromo-2-(pyridin-2-ylsulfanylmethyl)-phenoxy]-phenyl}-acetic acid], for which the IC50 in experiment [1] and in experiment [2] was 300 to 1000 nM in each case.

For `COc1ccc(CC(=O)O)cc1Oc1ccc(-c2cnn(C)c2)cc1CSC(C)C` [Compound 1-63, {3-[2-Isopropylsulfanylmethyl-4-(1-methyl-1H-pyrazol-4-yl)-phenoxy]-4-methoxy-phenyl}-acetic acid], the IC50 in experiment [1] was under 300 nM.

Take `COc1ccc(CC(=O)O)cc1Oc1ccc(-c2cnn(C)c2)cc1CS(=O)(=O)C(C)C` [Compound 1-64, {4-Methoxy-3-[4-(1-methyl-1H-pyrazol-4-yl)-2-(propane-2-sulfonylmethyl)-phenoxy]-phenyl}-acetic acid]: the IC50 in experiment [1] lay in the range of 300 to 1000 nM.

As for `COc1ccc(CC(=O)O)cc1Oc1ccc(C(=O)c2ccccc2)cc1CSC(C)C` [Compound 1-83, [3-(4-Benzoyl-2-isopropylsulfanylmethyl-phenoxy)-4-methoxy-phenyl]-acetic acid], the IC50 in experiment [1] is under 300 nM.

With `COc1ccc(CC(=O)O)cc1Cc1ccc(NC(=O)C(C)(C)C)cc1CSC(C)(C)C` [Compound 1-107, {3-[2-tert-Butylsulfanylmethyl-4-(2,2-dimethyl-propionylamino)-benzyl]-4-methoxy-phenyl}-acetic acid], the IC50 in experiment [1] is under 300 nM.

Take `COc1ccc(CC(=O)O)cc1Oc1ccc(NC(=O)C(C)(C)C)cc1COc1ccccc1` [Compound 1-118, {3-[4-(2,2-Dimethyl-propionylamino)-2-phenoxymethyl-phenoxy]-4-methoxy-phenyl}-acetic acid]: the IC50 in experiment [1] was in the range of 300 to 1000 nM.

Turning to `COc1ccc(CC(=O)O)cc1Oc1ccc(NS(=O)(=O)c2cccc3c(N(C)C)cccc23)cc1CSC(C)(C)C` [Compound 1-119, {3-[2-tert-Butylsulfanylmethyl-4-(5-dimethylamino-naphthalene-1-sulfonylamino)-phenoxy]-4-methoxy-phenyl}-acetic acid], the IC50 in experiment [1] is under 300 nM.

The record behind these values is US20110190227A1, “Antagonists of Prostaglandin D2 Receptors” (Amira Pharmaceuticals, Inc., priority 2008, published 2011).
